Read-outs that look alike come from different tables or passages of the source.
Columns and labels:
[1] = system: human A2780 ovarian cancer cells; design: method as in Plumb et al., 2003; Investigator's Brochure, 2004; conditions: A2780 xenografts, 10 mg/kg/day IP once daily for 7 days; ref Plumb et al., 2003; Investigator's Brochure, 2004; cited from earlier work
[2] = system: cisplatin-resistant A2780/cp70; design: method as in Plumb et al., 2003; Investigator's Brochure, 2004; conditions: A2780/cp70 xenografts, 10 mg/kg/day IP once daily for 7 days; ref Plumb et al., 2003; Investigator's Brochure, 2004; cited from earlier work
[3] = design: method as in Investigator's Brochure, 2004; conditions: following 5 or 7 days of treatment; ref Investigator's Brochure, 2004; cited from earlier work
[4] = system: HCT116 colon cancer cells; design: method as in Plumb et al., 2003; Investigator's Brochure, 2004; conditions: HCT116 xenografts, 40 mg/kg/day IP once daily for 7 days; ref Plumb et al., 2003; Investigator's Brochure, 2004; cited from earlier work
[5] = design: method as in Plumb et al., 2003; conditions: dogs, 45 minute IV infusion of 50 mg/kg; ref Plumb et al., 2003; cited from earlier work
[6] = Pharmacokinetics after 30 min i.v. infusion, phase I trial in hepatocellular carcinoma patients; format: in vivo, human; conditions: for Cmax / AUC(0-t) / Tmax / clearance / half-life / Vd: human, iv, plasma; for Cmax: mean ± SD; for AUC(0-t): read-out: AUC0–24 h; for clearance: read-out: CL (clearance) (converted); for half-life: read-out: T1/2 (half-life at the elimination phase) (converted); for Vd: read-out: Vz (volume of distribution)
Procedure: This multicentre phase I trial of belinostat was done in Hong Kong and Singapore. All patients provided written informed consent according to Good Clinical Practice guidelines, and the protocol was approved by the institutional review boards of Prince of Wales Hospital, Hong Kong and National University Hospital, Singapore.
Venous blood samples had been collected in heparinized tubes. Collected blood samples were centrifuged at 3000 g for 10–15 min and the plasma (supernatant) was separated from the cell pellet and stored in plain tubes at –80°C till analysis. […] Briefly, vorinostat-G was used as the internal standard for belinostat-G. The mass spectrometer was operated in positive ion mode with the optimal mass transitions of belinostat-G: m/z 495>93 and vorinostat-G: m/z 441>232, respectively. The analytical method was well validated with good linearity (coefficient of determination, r^2≥0.999) in the range of 1–100 µM for belinostat-G.
Pharmacokinetic parameters were estimated based on non-compartmental analysis model using WinNonlin software version 5.3 (Pharmsight, Sunnyvale, CA, USA). […] One way analysis of variance (ANOVA) was used to determine the significance among the genotypes with Tukey posthoc tests for adjustment for comparison between individual groups. A value of p<0.05 was considered to be significant.

[7] = design: method as in protocol pharmaceutical information; conditions: ref protocol pharmaceutical information; cited from earlier work
[8] = human, in vivo; cited from earlier work
[9] = system: Histone H3 acetylation (Ac-H3 [K9/K14]) in HepG2 cells; experiment: Western blot of acetyl histone H3; format: cell-based, human; conditions: dose increment after 5 h, time course at 10 µM
Procedure: Protein concentrations were quantified using the Bradford assay (Invitrogen). Proteins were separated on a 12% SDS-PAGE gel and transferred to nitrocellulose membrane. Nonspecific protein binding was blocked by incubating with 5% non-fat milk (BioRad Laboratories) in 0.1% PBS-Tween (PBST) at room temperature for 1 h and incubated with specific antibodies, Histone H3 and Ac-H3 [K9/K14] (Cell Signaling), at 4°C overnight. Appropriate species-specific Horseradish peroxidises-conjugated secondary antibodies were then added and incubated at room temperature for 1 h followed by detection using an enhanced chemiluminescence kit (GE Healthcare).

[10] = design: method as in Investigator's Brochure, 2004; conditions: arginine formulation, human blood ex vivo; ref Investigator's Brochure, 2004; cited from earlier work
[11] = system: murine P388 leukemia cells; design: method as in Investigator's Brochure, 2004; conditions: P388 IP model, ref Investigator's Brochure, 2004, cited from earlier work
[12] = design: method as in Investigator's Brochure, 2004; conditions: dogs, ref Investigator's Brochure, 2004, cited from earlier work
HepG2 cells = experiment: Gentian Violet viability staining, 24-well plates; format: cell-based, human; conditions: 0–10 µM, 72 h
Procedure: To the other plate, equal molar concentrations of belinostat-G were added similarly. After 72 h, cells were stained with Gentian Violet paint (0.5% w/v; B.P.) and assessed for viability. […] After incubating 24 h, 100-µL drug solution or blank medium was added into each well of 96-well plates. 72 h later, 20 µL of MTS/PES was added into each well for incubation for 3 h. OD values are measured on wavelength 490 nm. Cell growth inhibition was calculated based on the […] with subtraction of background reading for only medium containing wells. The growth inhibition was defined as the percentage of the average […] from drug-treated wells over that from control wells without treatment. The experiment was done in triplicates. IC50 values were calculated using GraphPad PRISM software (GraphPad Software, Inc., La Jolla, CA, USA).

[13] = system: histone H4 acetylation in peripheral blood mononuclear cells (PBMC) and tumor tissue; design: method as in Plumb et al., 2003; conditions: ref Plumb et al., 2003, cited from earlier work
[14] = 600 mg/m^2, 30 min i.v. infusion
[15] = 900 mg/m^2, 30 min i.v. infusion
[16] = 1200 mg/m^2, 30 min i.v. infusion
[17] = 1400 mg/m^2, 30 min i.v. infusion

## O=C(/C=C/c1cccc(S(=O)(=O)Nc2ccccc2)c1)NO [Belinostat, N-hydroxy-3-(phenylsulphamoylphenyl) acrylamide]
[1]
  tumor growth: Delay of tumor growth was observed
[2]
  tumor growth: Delay of tumor growth was observed
[3]
  drug accumulation: no clear indication of drug accumulation
[4]
  tumor growth: Growth inhibition was also observed
[5]
  plasma t½: approximately 40 minutes
[6]; 1200 mg/m^2
  coefficient of variation of Clearance (CL): 29.0%
  AUC(0-t): 113 ± 37.1 µM·h
[6]; 1400 mg/m^2
  coefficient of variation of Clearance (CL): 30.6%
  AUC(0-t): 149 ± 46.2 µM·h
[6]; doses ranging from 600 to 1400 mg/m^2
  dose linearity of pharmacokinetics: linear pharmacokinetics
[6]; [14]
  Cmax: 88.2 ± 8.5 µM
  Tmax: 0.33 ± 0.14 h
  clearance: 877 mL/min
  half-life: 3.54 ± 0.34 h
  Vd: 268 ± 26.6 L
[6]; [15]
  Cmax: 98.5 ± 29.7 µM
  Tmax: 0.42 ± 0.14 h
  clearance: 1180 mL/min
  half-life: 4.07 ± 0.39 h
  Vd: 409 ± 76.7 L
[6]; [16]
  Cmax: 154 ± 50.4 µM
  Tmax: 0.64 ± 0.1 h
  clearance: 910 mL/min
  half-life: 4.14 ± 0.42 h
  Vd: 305 ± 186 L
[6]; [17]
  Cmax: 174 ± 48.3 µM
  Tmax: 0.4 ± 0.14 h
  clearance: 883 mL/min
  half-life: 3.54 ± 0.5 h
  Vd: 279 ± 121 L
[6]; 600 mg/m^2
  AUC(0-t): 61.3 ± 1.2 µM·h
[6]; 900 mg/m^2
  AUC(0-t): 70 ± 17.3 µM·h
[7]
  light stability: no obvious light instability
[8]
  maximum tolerable dose: 1200 mg/m^2
[9]
  Histone H3 acetylation: time and concentration dependent increase
[10]
  hemolysis: No hemolysis
[11]; P<0.0001
  survival, 40 mg/kg/day × 5 days (from day 3) versus same total dose (200 mg/kg) as bolus on day 3: superior
[11]; P=0.009
  survival, 20 mg/kg/day for 10 days versus 40 mg/kg every two days (cumulative 200 mg/kg): better survival
[11]; p=0.49
  survival rates, every second day three times versus every day for 5 days (cumulative 270 mg/kg): no significant differences
[11]
  survival, daily dose (20, 40, or 80 mg/kg for 5 days) fractionated into two doses per day versus one daily dose: did not improve survival
[12]; 15 mg/kg and 35 mg/kg
  increases in the rate of respiration: not significantly different
[12]; high dose (35 mg/kg)
  heart rate: small transient increase in heart rate
[12]
  electrocardiogram waveform changes (decrease in RR, PR and QT intervals): not substantially different from the control group
HepG2 cells
  cytotoxicity / cell viability (staining): significant dose-dependent cytotoxicity
[13]; 1 and 2 hours after a single IP injection of 40 mg/kg
  histone H4 acetylation in PBMC: Hyperacetylated histone H4 was detected
[13]; PBMC, single IP injection of 40 mg/kg
  time at which acetylation returned to baseline levels: ≤ 3 h
[13]; mice
  dose with marked acetylation in both PBMCs and tumor tissue: ≥ 10 mg/kg

— publication PMC3559838 (PLoS ONE, 2013)
